Experiments:
α2 receptors = molecular target: T1, α2 receptors (Rattus norvegicus, UniProt P22909); test: affinity to α2 receptors (test described by Djop, J. Neurochemistry, 41, p. 710 (1983)); assay type: binding; conditions: α2 receptor; IC means inhibitory concentration
T1 construct: from tissue
T1 sequence (P22909 1-465): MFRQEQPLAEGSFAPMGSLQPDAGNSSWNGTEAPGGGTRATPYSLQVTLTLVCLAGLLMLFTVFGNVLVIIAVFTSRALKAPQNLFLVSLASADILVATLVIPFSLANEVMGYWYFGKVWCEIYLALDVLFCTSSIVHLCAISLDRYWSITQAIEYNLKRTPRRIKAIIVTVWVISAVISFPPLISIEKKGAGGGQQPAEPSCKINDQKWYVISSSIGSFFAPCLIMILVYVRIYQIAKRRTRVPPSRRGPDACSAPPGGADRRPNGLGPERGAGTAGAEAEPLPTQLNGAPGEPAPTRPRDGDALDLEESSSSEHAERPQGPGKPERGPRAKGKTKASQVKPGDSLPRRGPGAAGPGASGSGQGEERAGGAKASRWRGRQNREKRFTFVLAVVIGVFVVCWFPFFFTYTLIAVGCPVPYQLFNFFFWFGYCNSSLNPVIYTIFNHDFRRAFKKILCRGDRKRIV
Source text: (§1) The activity of the compounds of the present invention has been confirmed by their affinity to α2 and D1 receptors, according to the tests described by Djop, J. Neurochemistry, 41, p. 710 (1983) and by Billard et al., Life Science, p. 35 (1985).

D1 receptors = molecular target: T2, D1 receptors (Rattus norvegicus, UniProt P18901); test: affinity to D1 receptors (test described by Billard et al., Life Science, p. 35 (1985)); assay type: binding; conditions: D1 receptor; IC means inhibitory concentration
T2 construct: from tissue
Source text: as §1

T2 sequence (P18901 whole entry): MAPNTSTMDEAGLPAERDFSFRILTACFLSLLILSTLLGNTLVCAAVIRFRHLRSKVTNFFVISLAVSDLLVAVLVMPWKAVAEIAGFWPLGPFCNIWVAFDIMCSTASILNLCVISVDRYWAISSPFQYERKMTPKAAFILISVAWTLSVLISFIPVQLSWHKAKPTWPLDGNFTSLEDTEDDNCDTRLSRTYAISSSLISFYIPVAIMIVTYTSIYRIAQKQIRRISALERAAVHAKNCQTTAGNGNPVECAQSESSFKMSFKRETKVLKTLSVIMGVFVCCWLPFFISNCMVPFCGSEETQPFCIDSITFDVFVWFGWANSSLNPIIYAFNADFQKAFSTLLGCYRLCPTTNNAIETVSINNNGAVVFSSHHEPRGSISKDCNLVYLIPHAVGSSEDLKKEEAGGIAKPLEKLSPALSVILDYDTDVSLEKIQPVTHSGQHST

| Structure (SMILES) | IC50 (α2 receptors) [nM] | IC50 (D1 receptors) [nM] |
| --- | --- | --- |
| CCNC(=O)N(CCCN(C)C)C(=O)CC1CC2c3cccc4[nH]cc(c34)CC2N1C [Example 6, D-nor-6-methyl-7[N-(3-dimethylaminopropyl)-N-(ethylcarbamoyl)]-carbamoylmethyl-ergoline] | 0.4 | 0.9 |
| CN1C(CCNC(=O)OCc2ccccc2)CC2c3cccc4[nH]cc(c34)CC21 [Example 8, D-nor-6-methyl-7-benzyloxycarbamoylethyl-ergoline] | 0.04 | 0.7 |
| CN1C(CCN2CC(=O)NC2=O)CC2c3cccc4[nH]cc(c34)CC21 [Example 10, D-nor-6-methyl-7-(2,4-dioxo-1-imidazolidinyl-ethyl)-ergoline] | 0.05 | 0.4 |

Source: US4861793A, “D-nor-7-ergoline derivatives having anti-Parkinson and antipsychosis activity and pharmaceutical compositions containing them” (Farmitalia Carlo Erba, S.p.A, priority 1986, dated 1989)
